Columns and labels:
[1] = system: armyworm (Spodoptera frugiperda); experiment: Spodoptera frugiperda test (SPODFR spray treatment), Example 15; type: in vivo; settings: application rate 100 g/ha, maize leaf discs sprayed, after 7 days
Method: Spodoptera frugiperda Test (SPODFR Spray Treatment)
• Solvent: 78.0 parts by weight of acetone • 1.5 parts by weight of dimethylformamide • Emulsifier: 0.5 part by weight of alkylaryl polyglycol ether
To prepare an appropriate active ingredient formulation, 1 part by weight of active ingredient is mixed with the stated amounts of solvent and emulsifier, and the concentrate is diluted with emulsifier-containing water to the desired concentration. Leaf discs from maize (Zea mays) are sprayed with an active ingredient formulation of the desired concentration and, after drying, populated with caterpillars of the armyworm (Spodoptera frugiperda).
After 7 days, the efficacy in % is determined. 100% means that all caterpillars were killed; 0% means that no caterpillars were killed.

[2] = logP by HPLC on reverse-phase column (EEC Directive 79/831 Annex V.A8); type: physicochemical; settings: for chromatographic logP: reverse-phase C18 HPLC column, pH 2.7, HPLC
Method: The logP values reported in the above Tables and Preparation Examples were determined according to EEC Directive 79/831 Annex V.A8 by HPLC (High Performance Liquid Chromatography) on a reverse-phase column (C18). Temperature 43° C.

[3] = HPLC, C18 reverse phase, 43° C., acidic range pH 2.7, calibration with alkan-2-ones
[4] = C18 reverse phase, 43° C., acidic range pH 2.7, calibration with alkan-2-ones
[5] = HPLC-MS, HPLC on reverse-phase column

| chromatographic logP [2, 4] | Compound | logP ([2]; HPLC-MS) | also measured |
| --- | --- | --- | --- |
|  | CC(C)C(=O)N(Cc1ccccn1)Cc1ccc(/C=C/C(=O)NC(c2cccc(C(F)(F)F)c2)C(F)(F)F)cc1F (centres unmarked) [Ia-253] | HPLC-MS: logP = 3.37; mass | efficacy in % [1]: 100% |
|  | C=CCC(=O)NCc1ccc2oc(C(=O)NC(c3cccc(C(F)(F)F)c3)C(F)(F)F)cc2c1 (centres unmarked) [Ic-13] |  | logP [2, 3]: HPLC-MS: logP = 3.24; mass |
|  | O=C(NC(c1cccc(C(F)(F)F)c1)C(F)(F)F)c1cc2cc(S(=O)(=O)C(F)(F)F)ccc2[nH]1 (centres unmarked) [Ic-17] |  | logP [2, 3]: HPLC-MS: logP = 4.19; mass |
|  | O=C(/C=C/c1ccc(C(=O)NC2CC2)c(C(F)(F)F)c1)NC(c1cccc(Cl)c1)C(F)(F)F (centres unmarked) [Ia-231] | HPLC-MS: logP = 3.22; mass |  |
| 3.29 | O=C(/C=C/c1ccc(C(=O)O)c(C(F)(F)F)c1)NC(c1cccc(C(F)(F)F)c1)C(F)(F)F (centres unmarked) [4-[(1E)-3-Oxo-3-({2,2,2-trifluoro-1-[3-(trifluoromethyl)phenyl]ethyl}amino)prop-1-en-1-yl]-2-(trifluoromethyl)benzoic acid] |  |  |
| 2.19 | CCC(=O)NC(C)c1ccc(Br)cc1F (centres unmarked) [N-[1-(4-Bromo-2-fluorophenyl)ethyl]propanamide] |  |  |
| 1.57 | FC(F)(F)c1cc(Br)ccc1CNc1ccccn1 [N-[4-Bromo-2-(trifluoromethyl)benzyl]pyridin-2-amine] |  |  |
|  | N#Cc1cc(/C=C/C(=O)NC(c2cccc(C(F)(F)F)c2)C(F)(F)F)ccc1-n1cncn1 (centres unmarked) [Ia-10] | HPLC-MS: logP = 2.99; mass |  |
|  | O=C(/C=C/c1ccc(C(=O)NC2CC2)c(Cl)c1)NC(c1cccc(C(F)(F)F)c1)C(F)(F)F (centres unmarked) [Ia-118] | HPLC-MS: logP = 3.24; mass |  |
|  | O=C(/C=C/c1ccc(C(=O)Nc2nccs2)c(Cl)c1)NC(c1cccc(C(F)(F)F)c1)C(F)(F)F (centres unmarked) [Ia-185] | HPLC-MS: logP = 3.51; mass |  |
|  | O=C(/C=C/c1ccc(C(=O)NC2CC2)c(C(F)(F)F)c1)NC(c1cccc(F)c1)C(F)(F)F (centres unmarked) [Ia-230] | HPLC-MS: logP = 2.95; mass |  |
|  | O=C(/C=C/c1ccc(CNc2cc(Cl)ccn2)cc1)NC(c1cccc(C(F)(F)F)c1)C(F)(F)F (centres unmarked) [Ia-265] |  | logP [2, 5]: HPLC-MS: logP = 3.15; mass |
| 2.94 | NC(c1cc(Cl)cc(C(F)(F)F)c1)C(F)(F)F (centres unmarked) [1-[3-Chloro-5-(trifluoromethyl)phenyl]-2,2,2-trifluoroethanamine] |  |  |
| 3.34 | O=C(C#Cc1ccc(C(=O)NC2CC2)c(Cl)c1)NC(c1cccc(C(F)(F)F)c1)C(F)(F)F (centres unmarked) [2-Chloro-N-cyclopropyl-4-[3-oxo-3-({2,2,2-trifluoro-1-[3-(trifluoromethyl)phenyl]ethyl}amino)prop-1-yn-1-yl]benzamide] |  |  |
| 3.17 | NC(c1cc(Cl)c(Cl)c(Cl)c1)C(F)(F)F (centres unmarked) [2,2,2-Trifluoro-1-(3,4,5-trichlorophenyl)ethanamine] |  |  |
| 2.75 | C=CC(=O)NC(c1cccc(C(F)(F)F)c1)C(F)(F)F (centres unmarked) [N-{2,2,2-Trifluoro-1-[3-(trifluoromethyl)phenyl]ethyl}acrylamide] |  |  |
|  | CC(C)C(C#N)NC(=O)c1ccc(/C=C/C(=O)NC(c2cccc(C(F)(F)F)c2)C(F)(F)F)cc1Cl (centres unmarked) [Ia-182] | HPLC-MS: logP = 3.68; mass |  |
|  | O=C(/C=C/c1ccc(C(=O)NC2CC2)c(C(F)(F)F)c1)NC(c1cc(Cl)c(Cl)c(Cl)c1)C(F)(F)F (centres unmarked) [Ia-283] |  | logP [2, 5]: HPLC-MS: logP = 4.1; mass |
|  | Cc1cc(/C=C/C(=O)NC(c2cc(Cl)cc(Cl)c2)C(F)(F)F)ccc1C(=O)NCC(F)(F)F (centres unmarked) [Ia-20] | HPLC-MS: logP = 3.90; mass |  |
|  | N#Cc1cc(/C=C/C(=O)NC(c2cccc(C(F)(F)F)c2)C(F)(F)F)ccc1-n1cccn1 (racemic) [Ia-201] | HPLC-MS: logP = 3.5; mass |  |
| 1.92 | O=C(NC1CC1)c1cnc(I)cc1C(F)(F)F [N-Cyclopropyl-6-iodo-4-(trifluoromethyl)nicotinamide] |  |  |
| 1.7 | NC1CCc2cc(/C=C/C(=O)NC(c3cccc(C(F)(F)F)c3)C(F)(F)F)ccc21 (centres unmarked) [(2E)-3-(1-Amino-2,3-dihydro-1H-inden-5-yl)-N-{2,2,2-trifluoro-1-[3-(trifluoromethyl)phenyl]-ethyl}acrylamide] |  |  |
|  | O=C(/C=C/c1ccc(C(=O)NC2CC2)cc1Cl)NC(c1cccc(C(F)(F)F)c1)C(F)(F)F (centres unmarked) [Ia-233] | HPLC-MS: logP = 3.46; mass |  |
| 2.02 | NCc1ccc2oc(C(=O)NC(c3cccc(C(F)(F)F)c3)C(F)(F)F)cc2c1 (centres unmarked) [5-(Aminomethyl)-N-{2,2,2-trifluoro-1-[3-(trifluoromethyl)phenyl]ethyl}-1-benzofuran-2-carboxamide] |  |  |
|  | N#Cc1cnn(-c2ccc(/C=C/C(=O)NC(c3ccc(F)c(Cl)c3)C(F)(F)F)cc2Cl)c1 (racemic) [Ia-202] | HPLC-MS: logP = 3.77; mass |  |
